Literature values in patent US8420699B1, “Composition and methods of treatment using deionized and ozonated solution” (priority 2002, dated 2013).

For O=[O+][O-] [ozone], the half-life of ozone (at 68° F.) is given as 45 min and the “concentrated effectiveness relative to initial value” (in two hours after generation) is given as 16 % of its initial value.
